In patent EP4603105A1, “PHARMACEUTICAL COMPOSITION CONTAINING CYCLIC COMPOUND HAVING SELECTIVE KRAS INHIBITORY EFFECT AGAINST HRAS AND NRAS” (CHUGAI SEIYAKU KABUSHIKI KAISHA, priority 2022, dated 2024):
Where two headings read alike, the source gives them in different places. Where a SMILES comes first, the peptide text is derived from it. Bridges are numbered along the chain shown (N, C = ends). [ ]: non-standard residue; d: D form. The star is where a group is joined. hPhe(3,5-F2-4-CF3) = N[C@@H](CCc1cc(F)c(C(F)(F)F)c(F)c1)C(=O)O; hPhe(3-Cl-4-CF3) = N[C@@H](CCc1ccc(C(F)(F)F)c(Cl)c1)C(=O)O; NPrPhe(4-CF3) = CCCN[C@@H](Cc1ccc(C(F)(F)F)cc1)C(=O)O; NEtPhe(4-CF3) = CCN[C@@H](Cc1ccc(C(F)(F)F)cc1)C(=O)O; hPhe(3,4-Cl2) = N[C@@H](CCc1ccc(Cl)c(Cl)c1)C(=O)O; NPrPhe(4-Me) = CCCN[C@@H](Cc1ccc(C)cc1)C(=O)O; NEtPhe(4-Me) = CCN[C@@H](Cc1ccc(C)cc1)C(=O)O; NMeGly(cPent) = CN[C@H](C(=O)O)C1CCCC1; Pro(4,4-F2) = O=C(O)[C@@H]1CC(F)(F)CN1; NMeD = CN[C@@H](CC(=O)O)C(=O)O; NMeL = CN[C@@H](CC(C)C)C(=O)O; Morpholide = C1CN(*)CCO1; NMeA = CN[C@@H](C)C(=O)O; Ac5c = NC1(C(=O)O)CCCC1; Aze = O=C(O)[C@@H]1CCN1; Ac4c = NC1(C(=O)O)CCC1; NEtG = CCNCC(=O)O; Sar = CNCC(=O)O

Columns and labels:
[1] = test system: human lung cancer strain NCI-H441; assay type: cell-based
Method in brief: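 Step one: dispense the test compound in serial DMSO dilutions. Step three: add the reagent and measure […].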

HRAS wild-type protein = HRAS wild-type protein (Homo sapiens, UniProt P01112); test: Binding to HRAS by surface plasmon resonance (SPR), KD and KD ratio to KRAS
HRAS wild-type protein, sequence (P01112 whole entry): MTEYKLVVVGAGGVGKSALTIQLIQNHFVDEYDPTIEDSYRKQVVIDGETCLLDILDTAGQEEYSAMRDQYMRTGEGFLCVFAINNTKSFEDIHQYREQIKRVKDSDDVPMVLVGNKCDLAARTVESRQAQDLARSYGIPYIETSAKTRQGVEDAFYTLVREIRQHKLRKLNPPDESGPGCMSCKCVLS
Method in brief: (§1)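 Captured GDP-RAS (~100–300 RU) was exposed to increasing compound concentrations, 75 s per step, in running buffer with 10 µM GDP, 10 mM MgCl2 and 4% DMSO at pH 7.4.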

[2] = biological target: GDP-bound NRAS wild-type protein (Homo sapiens, UniProt P01111); test: Binding to NRAS by surface plasmon resonance (SPR), KD and KD ratio to KRAS
GDP-bound NRAS wild-type protein, sequence (P01111 whole entry): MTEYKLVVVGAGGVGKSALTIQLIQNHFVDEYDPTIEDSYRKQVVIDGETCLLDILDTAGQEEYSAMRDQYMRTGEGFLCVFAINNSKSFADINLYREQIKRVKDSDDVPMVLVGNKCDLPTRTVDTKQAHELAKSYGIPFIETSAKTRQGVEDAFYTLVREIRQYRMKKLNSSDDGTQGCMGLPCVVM
Method in brief: as §1

[3] = ratio of KD value for HRAS wild-type protein to KD value for KRAS (SPR)
[4] = ratio of KD value for GDP-bound NRAS wild-type protein to KD value for KRAS (SPR)
[5] = ratio of KD for HRAS wild-type protein to KD for KRAS
[6] = ratio of KD for GDP-bound NRAS wild-type protein to KD for KRAS
[7] = ratio of the KD value with respect to HRAS wild-type protein to the KD value with respect to KRAS
[8] = ratio of the KD value with respect to GDP-bound NRAS wild-type protein to the KD value with respect to KRAS

Structure (SMILES) | IC50 [1] | HRAS /KRAS (HRAS wild-type protein; [3]) | NRAS /KRAS [2, 4] | IC50 ([1]; NCI-H441 cells, 4 days, CellTiter-Glo, read-out: NCl-H441 IC50) | HRAS /KRAS (HRAS wild-type protein; [5]) | NRAS /KRAS [2, 6] | HRAS /KRAS (HRAS wild-type protein; [7]) | NRAS /KRAS [2, 8]
CCO[C@@H]1C[C@H]2C(=O)NC3(CC(C)(C)C3)C(=O)N(C)[C@@H](C(CC)CC)C(=O)N(C)C(C(C)C)CC(=O)N(C)[C@@H](CC3CC3)C(=O)N[C@@H]([C@@H](C)CC)C(=O)N(C)CC(=O)N(C)[C@H]3C/C=C\CCN(C3=O)[C@@H](Cc3ccc(C(F)(F)F)cc3)C(=O)N(C)CC(=O)N[C@@H](CCc3cc(F)c(C(F)(F)F)c(F)c3)C(=O)N2C1 (stereo partly drawn) [PP1593] | 144 nM | A (a compound having 10 or more and less than 20 is denoted as A) | A (a compound having 10 or more and less than 20 is denoted as A) | – | – | – | – | –
CCC[C@H]1C(=O)N[C@@H]([C@@H](C)CC)C(=O)N(C)CC(=O)N(C)[C@H]2C/C=C\CCN(C2=O)[C@@H](Cc2ccc(C(F)(F)F)cc2)C(=O)N(C)CC(=O)N[C@@H](CCc2cc(Cl)c3c(ccn3C)c2)C(=O)N2C[C@H](OCC)C[C@H]2C(=O)NC2(CC(C)(C)C2)C(=O)N(C)[C@@H](C(CC)CC)C(=O)N(C)[C@H](C(=O)N(C)C)CC(=O)N1C [PP2896] | – | – | – | 79.3 nM | A (a compound having 10 or more and less than 20 is denoted as A) | A (a compound having 10 or more and less than 20 is denoted as A) | – | –
CC[C@H](C)[C@@H]1NC(=O)[C@H](CC(C)C)N(C)C(=O)C[C@@H](C(=O)N2CCOCC2)N(C)C(=O)[C@H](C2CCCC2)N(C)C(=O)C2(CCC2)NC(=O)[C@@H]2C[C@@H](OC)CN2C(=O)[C@H](CCc2cc(F)c(C(F)(F)F)c(F)c2)NC(=O)CN(C)C(=O)[C@H](Cc2ccc(C(F)(F)F)cc2)N2CCCCC[C@@H](C2=O)N(C)C(=O)CN(C)C1=O [PP1016] | 61.2 nM | – | – | – | B (a compound having 3 or more and less than 10 is denoted as B) | A (a compound having 10 or more and less than 20 is denoted as A) | – | –
CCO[C@@H]1C[C@H]2C(=O)NC3(CC(C)(C)C3)C(=O)N(C)[C@@H](C(CC)CC)C(=O)N(C)[C@H](C(=O)N3CCCC3)CC(=O)N(C)[C@@H](C)C(=O)N[C@@H]([C@@H](C)CC)C(=O)N(C)CC(=O)N(C)[C@H]3C/C=C\CCN(C3=O)[C@@H](Cc3ccc(C(F)(F)F)cc3)C(=O)N(C)CC(=O)N[C@@H](CCc3ccc(Cl)c(Cl)c3)C(=O)N2C1 [PP2178] | 35.9 nM | – | – | – | – | – | A (a compound having 10 or more and less than 20 is denoted as A) | AA (a compound having 20 or more is denoted as AA)
CC[C@H](C)[C@@H]1NC(=O)[C@H](CC(C)C)N(C)C(=O)C[C@@H](C(=O)N2CCOCC2)N(C)C(=O)[C@H](C2CCCC2)N(C)C(=O)C2(CCCC2)NC(=O)[C@@H]2CCCN2C(=O)[C@H](CCc2ccc(C(F)(F)F)c(Cl)c2)NC(=O)CN(C)C(=O)[C@H](Cc2ccc(C)cc2)N(CC)C(=O)CN(C)C(=O)CN(C)C1=O [PP0022] ([NMeL]I[Sar][Sar][NEtPhe(4-Me)][Sar][hPhe(3-Cl-4-CF3)]P[Ac5c][NMeGly(cPent)][NMeD]-Morpholide; lactam N-11) | 14.4 nM | – | – | – | C (A compound having a KD ratio of 0.1 or more and less than 3 is denoted as C) | B (a compound having 3 or more and less than 10 is denoted as B) | – | –
CCO[C@@H]1C[C@H]2C(=O)NC3(CCC3)C(=O)N(C)[C@@H](C3CCCC3)C(=O)N(C)[C@H](C(=O)N(C)CC)CC(=O)N(C)[C@H]3CCCCCc4ccc(cc4)C[C@@H](C(=O)N(C)CC(=O)N[C@@H](CCc4ccc(C(F)(F)F)c(OC)c4)C(=O)N2C1)N1CC/C=C\C[C@@H](C1=O)N(C)C(=O)CN(C)C(=O)[C@H]([C@@H](C)CC)NC3=O [PP2118] | 8.1 nM | – | – | – | – | – | B (a compound having 3 or more and less than 10 is denoted as B) | A (a compound having 10 or more and less than 20 is denoted as A)
CCCN1C(=O)[C@@H]2CCN2C(=O)CN(C)C(=O)[C@H]([C@@H](C)CC)NC(=O)[C@H](CC(C)C)N(C)C(=O)C[C@@H](C(=O)N2CCOCC2)NC(=O)[C@H](C2CCCC2)N(C)C(=O)C2(CCC2)NC(=O)[C@@H]2CC(F)(F)CN2C(=O)[C@H](CCc2ccc(C(F)(F)F)c(Cl)c2)NC(=O)CN(C)C(=O)[C@@H]1Cc1ccc(C(F)(F)F)cc1 [PP0352] ([NMeL]I[Sar][Aze][NPrPhe(4-CF3)][Sar][hPhe(3-Cl-4-CF3)][Pro(4,4-F2)][Ac4c][NMeGly(cPent)]D-Morpholide; lactam N-11) | 72.4 nM | – | – | – | B (a compound having 3 or more and less than 10 is denoted as B) | C (A compound having a KD ratio of 0.1 or more and less than 3 is denoted as C) | – | –
CCCN1C(=O)CN(CC)C(=O)CN(C)C(=O)[C@H]([C@@H](C)CC)NC(=O)[C@H](CC(C)C)N(C)C(=O)C[C@@H](C(=O)N2CCOCC2)N(C)C(=O)[C@H](C2CCCC2)N(C)C(=O)C2(CCCC2)NC(=O)[C@@H]2CCCN2C(=O)[C@H](CCc2ccc(C(F)(F)F)c(Cl)c2)NC(=O)CN(C)C(=O)[C@@H]1Cc1ccc(C)cc1 [PP0065] ([NMeL]I[Sar][NEtG][NPrPhe(4-Me)][Sar][hPhe(3-Cl-4-CF3)]P[Ac5c][NMeGly(cPent)][NMeD]-Morpholide; lactam N-11) | 4.3 nM | – | – | – | C (A compound having a KD ratio of 0.1 or more and less than 3 is denoted as C) | C (A compound having a KD ratio of 0.1 or more and less than 3 is denoted as C) | – | –
CCO[C@@H]1C[C@H]2C(=O)NC3(CCC3)C(=O)N(C)[C@@H](C3CCCC3)C(=O)N(C)[C@H](C(=O)N(C)C)CC(=O)N(C)[C@H]3CCCCCc4ccc(cc4)C[C@@H](C(=O)N(C)CC(=O)N[C@@H](CCc4ccc(C(F)(F)F)c(OC)c4)C(=O)N2C1)N1CC/C=C\C[C@@H](C1=O)N(C)C(=O)CN(C)C(=O)[C@H]([C@@H](C)CC)NC3=O [PP2262] | 3.8 nM | – | – | – | – | – | B (a compound having 3 or more and less than 10 is denoted as B) | A (a compound having 10 or more and less than 20 is denoted as A)
CCO[C@@H]1C[C@H]2C(=O)NC3(CC(C)(C)C3)C(=O)N(C)[C@@H](C3CCCC3)C(=O)N(C)[C@H](C(=O)N(C)C)CC(=O)N(C)[C@@H](C)C(=O)N[C@@H]([C@@H](C)CC)C(=O)N(C)CC(=O)N(C)[C@H]3CCCCCN(C3=O)[C@@H](Cc3ccc(C(F)(F)F)cc3)C(=O)N(C)CC(=O)N[C@@H](CCc3cc(F)c(C(F)(F)F)c(F)c3)C(=O)N2C1 [PP0723] | 10.8 nM | – | – | – | – | – | B (a compound having 3 or more and less than 10 is denoted as B) | B (a compound having 3 or more and less than 10 is denoted as B)
CC[C@H](C)[C@@H]1NC(=O)[C@H](CC(C)C)N(C)C(=O)C[C@@H](C(=O)N2CCOCC2)N(C)C(=O)[C@H](C2CCCC2)N(C)C(=O)C2(CCCC2)NC(=O)[C@@H]2CCCN2C(=O)[C@H](CCc2ccc(Cl)c(Cl)c2)NC(=O)CN(C)C(=O)[C@H](Cc2ccc(C(F)(F)F)cc2)N(CC)C(=O)[C@@H]2CCN2C(=O)[C@H](C)N(C)C1=O [PP0223] ([NMeL]I[NMeA][Aze][NEtPhe(4-CF3)][Sar][hPhe(3,4-Cl2)]P[Ac5c][NMeGly(cPent)][NMeD]-Morpholide; lactam N-11) | 5 nM | – | – | – | C (A compound having a KD ratio of 0.1 or more and less than 3 is denoted as C) | C (A compound having a KD ratio of 0.1 or more and less than 3 is denoted as C) | – | –
CCO[C@@H]1C[C@H]2C(=O)NC3(CCC3)C(=O)N(C)[C@@H](C3CCCC3)C(=O)N(C)[C@H](C(=O)N(C)C)CC(=O)N(C)[C@@H](CC)C(=O)N[C@@H]([C@@H](C)CC)C(=O)N3CC[C@H]3C(=O)N(C)[C@H]3C/C=C\CCN(C3=O)[C@@H](Cc3ccc(C(F)(F)F)cc3)C(=O)N(C)CC(=O)N[C@@H](CCc3cc(F)c(C(F)(F)F)c(F)c3)C(=O)N2C1 [PP0984] | 64.6 nM | – | – | – | A (a compound having 10 or more and less than 20 is denoted as A) | A (a compound having 10 or more and less than 20 is denoted as A) | – | –
CCCN1C(=O)CN(C)C(=O)CN(C)C(=O)[C@H]([C@@H](C)CC)NC(=O)[C@H](CC(C)C)N(C)C(=O)C[C@@H](C(=O)N(C)C)N(C)C(=O)[C@H](C2CCCC2)N(C)C(=O)C2(CCCC2)NC(=O)[C@@H]2CCCN2C(=O)[C@H](CCc2cc(F)c(C(F)(F)F)c(F)c2)NC(=O)CN(C)C(=O)[C@@H]1Cc1ccc(C(F)(F)F)cc1 [PP0788] ([NMeL]I[Sar][Sar][NPrPhe(4-CF3)][Sar][hPhe(3,5-F2-4-CF3)]P[Ac5c][NMeGly(cPent)][NMeD]-NMe2; lactam N-11) | 7.1 nM | – | – | – | C (A compound having a KD ratio of 0.1 or more and less than 3 is denoted as C) | B (a compound having 3 or more and less than 10 is denoted as B) | – | –
CCCOC[C@H]1C(=O)N[C@@H]([C@@H](C)CC)C(=O)N(C)CC(=O)N(C)[C@H]2C/C=C\CCN(C2=O)[C@@H](Cc2ccc(C(F)(F)F)cc2)C(=O)N(C)CC(=O)N[C@@H](CCc2cc(F)c(C(F)(F)F)c(F)c2)C(=O)N2CC(F)(F)C[C@H]2C(=O)NC2(CC(C)(C)C2)C(=O)N(C)[C@@H](C2CCCC2)C(=O)N(C)[C@H](C(=O)N(C)C)CC(=O)N1C [PP1718] | 2.5 nM | A (a compound having 10 or more and less than 20 is denoted as A) | AA (a compound having 20 or more is denoted as AA) | – | – | – | – | –
